In PubChem BioAssay AID248 (DTP/NCI, 2004):
Several values for one entry are separate records, joined by “and”; a condition that tells them apart may be missing. Equal entries are not always repeated. Toxic doses and inconclusive results are not listed. No stated cut-off is given here; in the data, active means T/C of 150% or more; inactive means T/C below 125%.

Test system: L1210 leukemia ip in BDF1 mice, survival T/C
Experiment: NCI In Vivo Anticancer Drug Screen. Data for tumor model L1210 Leukemia (intraperitoneal) in B6D2F1 (BDF1) mice
Details: endpoint: mean survival time, higher = longer survival
How it was run: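 Value reflects the ratio of survival in compound-treated mice to survival in vehicle-treated controls, with both groups carrying the same transplanted tumor.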

[1] = dose: 100.0 mg/kg/injection, schedule: Q01DX009 (ip), vehicle: carboxymethylcellulose (CMC)
[2] = dose: 100.0 mg/kg/injection, schedule: Q04DX002 (ip), vehicle: carboxymethylcellulose (CMC)
[3] = dose: 100.0 mg/kg/injection, schedule: Q04DX003 (ip), vehicle: carboxymethylcellulose (CMC)
[4] = dose: 200.0 mg/kg/injection, schedule: Q01DX009 (ip), vehicle: carboxymethylcellulose (CMC)
[5] = dose: 200.0 mg/kg/injection, schedule: Q04DX002 (ip), vehicle: carboxymethylcellulose (CMC)
[6] = dose: 200.0 mg/kg/injection, schedule: Q04DX003 (ip), vehicle: carboxymethylcellulose (CMC)
[7] = dose: 400.0 mg/kg/injection, schedule: Q01DX009 (ip), vehicle: carboxymethylcellulose (CMC)
[8] = dose: 400.0 mg/kg/injection, schedule: Q04DX002 (ip), vehicle: carboxymethylcellulose (CMC)
[9] = dose: 400.0 mg/kg/injection, schedule: Q04DX003 (ip), vehicle: carboxymethylcellulose (CMC)

Measured: T/C

CCCCN(CCCC)c1ccc(/C=C/c2ccnc3ccccc23)cc1
inactive: [1] 101 % of control and 103 % of control | [2] 102 % of control | [3] 97 % of control | dose: 200.0 mg/kg/injection, schedule: Q01DX001 (ip), vehicle: carboxymethylcellulose (CMC) 92 % of control | [4] 101 % of control and 104 % of control | [5] 108 % of control | [6] 100 % of control | [7] 101 % of control and 103 % of control | [8] 102 % of control | [9] 97 % of control | dose: 800.0 mg/kg/injection, schedule: Q01DX001 (ip), vehicle: carboxymethylcellulose (CMC) 92 % of control | dose: 1600.0 mg/kg/injection, schedule: Q01DX001 (ip), vehicle: carboxymethylcellulose (CMC) 88 % of control

O=C(NC(CSCc1ccccc1)C(=O)Oc1ccc([N+](=O)[O-])cc1)OCc1ccccc1 (centres undefined)
inactive: dose: 12.0 mg/kg/injection, schedule: Q01DX009 (ip), vehicle: gum acacia 91 % of control | dose: 25.0 mg/kg/injection, schedule: Q01DX009 (ip), vehicle: gum acacia 111 % of control | dose: 25.0 mg/kg/injection, schedule: Q04DX003 (ip), vehicle: gum acacia 91 % of control | dose: 50.0 mg/kg/injection, schedule: Q01DX009 (ip), vehicle: gum acacia 87 % of control | dose: 50.0 mg/kg/injection, schedule: Q04DX003 (ip), vehicle: gum acacia 88 % of control | dose: 100.0 mg/kg/injection, schedule: Q04DX003 (ip), vehicle: gum acacia 92 % of control

CCCCOP(=O)(OCCCC)c1ccccc1OC
inactive: dose: 25.0 mg/kg/injection, schedule: Q04DX002 (ip), vehicle: saline with Tween-80 99 % of control | dose: 50.0 mg/kg/injection, schedule: Q04DX002 (ip), vehicle: saline with Tween-80 99 % of control | dose: 100.0 mg/kg/injection, schedule: Q04DX002 (ip), vehicle: saline with Tween-80 96 % of control and 89 % of control

CC(=O)OC1C2OC3C=C(C)CCC3(CO)C(C)(C1OC(C)=O)C21CO1 (centres undefined)
inactive: dose: 0.8 mg/kg/injection, schedule: Q01DX009 (ip), vehicle: other 107 % of control | dose: 1.6 mg/kg/injection, schedule: Q01DX009 (ip), vehicle: other 111 % of control | dose: 6.4 mg/kg/injection, schedule: Q01DX009 (ip), vehicle: other 95 % of control

COc1cc(/C=N/NC(C)=O)ccc1O
inactive: dose: 50.0 mg/kg/injection, schedule: Q01DX009 (ip), vehicle: saline with Tween-80 97 % of control | dose: 100.0 mg/kg/injection, schedule: Q01DX009 (ip), vehicle: saline with Tween-80 94 % of control | dose: 200.0 mg/kg/injection, schedule: Q01DX009 (ip), vehicle: saline with Tween-80 110 % of control

CCOC(=O)CCN(Cc1ccco1)C(=S)Nc1ccccc1
inactive: dose: 200.0 mg/kg/injection, schedule: Q01DX Z (ip), vehicle: methylcellulose (MC) 89 % of control

O=C(c1cccc([N+](=O)[O-])c1)c1cccc([N+](=O)[O-])c1
inactive: dose: 100.0 mg/kg/injection, schedule: Q01DX001 (ip), vehicle: Klucel (hydroxypropylcellulose) (HPC) 117 % of control | dose: 200.0 mg/kg/injection, schedule: Q01DX001 (ip), vehicle: Klucel (hydroxypropylcellulose) (HPC) 97 % of control | dose: 400.0 mg/kg/injection, schedule: Q01DX001 (ip), vehicle: Klucel (hydroxypropylcellulose) (HPC) 94 % of control

O=C(O)CCC1(c2ccccc2)CCCC1=O (centres undefined)
inactive: dose: 12.5 mg/kg/injection, schedule: Q01DX009 (ip), vehicle: water 101 % of control | dose: 25.0 mg/kg/injection, schedule: Q01DX009 (ip), vehicle: water 104 % of control | dose: 50.0 mg/kg/injection, schedule: Q01DX009 (ip), vehicle: water 98 % of control | dose: 100.0 mg/kg/injection, schedule: Q01DX009 (ip), vehicle: water 95 % of control

BrC1CC/C=C\CCC1Br (centres undefined)
inactive: dose: 100.0 mg/kg/injection, schedule: Q01DX009 (ip), vehicle: Klucel (hydroxypropylcellulose) (HPC) 93 % of control | dose: 100.0 mg/kg/injection, schedule: Q04DX003 (ip), vehicle: Klucel (hydroxypropylcellulose) (HPC) 105 % of control | dose: 200.0 mg/kg/injection, schedule: Q01DX009 (ip), vehicle: Klucel (hydroxypropylcellulose) (HPC) 87 % of control | dose: 200.0 mg/kg/injection, schedule: Q04DX003 (ip), vehicle: Klucel (hydroxypropylcellulose) (HPC) 91 % of control | dose: 400.0 mg/kg/injection, schedule: Q01DX009 (ip), vehicle: Klucel (hydroxypropylcellulose) (HPC) 93 % of control | dose: 400.0 mg/kg/injection, schedule: Q04DX003 (ip), vehicle: Klucel (hydroxypropylcellulose) (HPC) 109 % of control

CC1CN=C(c2ccc(NC(=O)c3ccc(C(=O)Nc4ccc(C5=NCC(C)N5)cc4)cc3)cc2)N1 (centres undefined)
active: dose: 1.9 mg/kg/injection, schedule: Q01DX Z (ip), vehicle: carboxymethylcellulose (CMC) 198 % of control | dose: 2.9 mg/kg/injection, schedule: Q01DX Z (ip), vehicle: carboxymethylcellulose (CMC) 173 % of control and 193 % of control | dose: 3.8 mg/kg/injection, schedule: Q01DX Z (ip), vehicle: carboxymethylcellulose (CMC) 228 % of control | dose: 4.3 mg/kg/injection, schedule: Q01DX Z (ip), vehicle: carboxymethylcellulose (CMC) 157 % of control | dose: 6.5 mg/kg/injection, schedule: Q01DX Z (ip), vehicle: carboxymethylcellulose (CMC) 207 % of control | dose: 7.5 mg/kg/injection, schedule: Q01DX Z (ip), vehicle: carboxymethylcellulose (CMC) 337 % of control | dose: 9.7 mg/kg/injection, schedule: Q01DX Z (ip), vehicle: carboxymethylcellulose (CMC) 205 % of control | dose: 15.0 mg/kg/injection, schedule: Q01DX Z (ip), vehicle: carboxymethylcellulose (CMC) 243 % of control | dose: 30.0 mg/kg/injection, schedule: Q01DX Z (ip), vehicle: carboxymethylcellulose (CMC) 175 % of control | dose: 32.8 mg/kg/injection, schedule: Q01DX Z (ip), vehicle: carboxymethylcellulose (CMC) 151 % of control
inactive: dose: 0.5 mg/kg/injection, schedule: Q01DX Z (ip), vehicle: carboxymethylcellulose (CMC) 100 % of control | dose: 1.0 mg/kg/injection, schedule: Q01DX Z (ip), vehicle: carboxymethylcellulose (CMC) 117 % of control | dose: 1.0 mg/kg/injection, schedule: Q01DX Z (ip), vehicle: saline 119 % of control | dose: 30.0 mg/kg/injection, schedule: Q01DX Z (oral), vehicle: carboxymethylcellulose (CMC) 97 % of control | dose: 60.0 mg/kg/injection, schedule: Q01DX Z (ip), vehicle: saline 119 % of control | dose: 60.0 mg/kg/injection, schedule: Q01DX Z (oral), vehicle: carboxymethylcellulose (CMC) 94 % of control | dose: 62.5 mg/kg/injection, schedule: Q## X010 (oral), vehicle: saline 102 % of control | dose: 74.0 mg/kg/injection, schedule: Q01DX Z (ip), vehicle: carboxymethylcellulose (CMC) 114 % of control | dose: 111.0 mg/kg/injection, schedule: Q01DX Z (ip), vehicle: carboxymethylcellulose (CMC) 101 % of control | dose: 120.0 mg/kg/injection, schedule: Q01DX Z (ip), vehicle: saline 114 % of control | dose: 120.0 mg/kg/injection, schedule: Q01DX Z (oral), vehicle: carboxymethylcellulose (CMC) 97 % of control | dose: 125.0 mg/kg/injection, schedule: Q## X010 (oral), vehicle: saline 102 % of control | dose: 240.0 mg/kg/injection, schedule: Q01DX Z (oral), vehicle: carboxymethylcellulose (CMC) 94 % of control | dose: 250.0 mg/kg/injection, schedule: Q## X010 (oral), vehicle: saline 102 % of control | dose: 375.0 mg/kg/injection, schedule: Q01DX Z (ip), vehicle: carboxymethylcellulose (CMC) 117 % of control | dose: 500.0 mg/kg/injection, schedule: Q## X010 (oral), vehicle: saline 103 % of control

Cc1cc(OC(=O)Nc2cccc3ccccc23)ccc1Cl
inactive: [1] 97 % of control and 101 % of control | dose: 100.0 mg/kg/injection, schedule: Q04DX002 (ip), vehicle: Klucel (hydroxypropylcellulose) (HPC) 105 % of control | [2] 93 % of control and 91 % of control | [3] 103 % of control | [4] 98 % of control and 91 % of control | dose: 200.0 mg/kg/injection, schedule: Q04DX002 (ip), vehicle: Klucel (hydroxypropylcellulose) (HPC) 97 % of control | [5] 97 % of control and 98 % of control | [6] 94 % of control | [7] 94 % of control and 98 % of control | dose: 400.0 mg/kg/injection, schedule: Q04DX002 (ip), vehicle: Klucel (hydroxypropylcellulose) (HPC) 109 % of control | [8] 95 % of control | [9] 90 % of control
